Results from PMC8550792, “Evolution of kinase polypharmacology across HSP90 drug discovery” (Cell Chemical Biology, 2021).

Tests used:
Assay in all cases: biochemical
Assay type in all cases: biochemical
382 unique human kinases [1] = biological target: T1, 382 unique human kinases (Homo sapiens, UniProt P32298); conditions: kinase GRK4, compound 10 uM; for remaining activity at 10 µM: read-out: % Enzyme Activity (relative to DMSO controls)
T1 construct: purchased Reaction Biology (HotSpot contract assay)
T1 sequence (P32298 whole entry): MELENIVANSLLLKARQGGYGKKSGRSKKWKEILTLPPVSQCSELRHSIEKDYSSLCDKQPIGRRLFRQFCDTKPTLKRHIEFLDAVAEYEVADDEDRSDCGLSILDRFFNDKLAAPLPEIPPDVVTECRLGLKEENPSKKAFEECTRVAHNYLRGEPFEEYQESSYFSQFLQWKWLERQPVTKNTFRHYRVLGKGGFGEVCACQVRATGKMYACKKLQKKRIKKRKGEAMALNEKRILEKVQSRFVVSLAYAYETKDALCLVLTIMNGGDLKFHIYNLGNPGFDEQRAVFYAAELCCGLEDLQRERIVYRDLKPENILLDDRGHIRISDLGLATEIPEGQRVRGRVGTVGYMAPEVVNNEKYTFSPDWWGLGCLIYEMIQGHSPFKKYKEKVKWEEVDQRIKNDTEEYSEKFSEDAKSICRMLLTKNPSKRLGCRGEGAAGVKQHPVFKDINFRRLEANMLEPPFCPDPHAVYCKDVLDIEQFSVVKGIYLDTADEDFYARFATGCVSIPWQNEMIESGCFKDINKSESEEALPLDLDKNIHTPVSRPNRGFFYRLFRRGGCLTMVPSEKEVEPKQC

382 unique human kinases [2] = biological target: T2, 382 unique human kinases (Homo sapiens, UniProt P22607, K650E); conditions: FGFR3 (K650E), 10 uM; for remaining activity at 10 µM: read-out: % Enzyme Activity (relative to DMSO controls)
T2 construct: purchased Reaction Biology (HotSpot contract assay)
T2 sequence (P22607 23-806 K650E): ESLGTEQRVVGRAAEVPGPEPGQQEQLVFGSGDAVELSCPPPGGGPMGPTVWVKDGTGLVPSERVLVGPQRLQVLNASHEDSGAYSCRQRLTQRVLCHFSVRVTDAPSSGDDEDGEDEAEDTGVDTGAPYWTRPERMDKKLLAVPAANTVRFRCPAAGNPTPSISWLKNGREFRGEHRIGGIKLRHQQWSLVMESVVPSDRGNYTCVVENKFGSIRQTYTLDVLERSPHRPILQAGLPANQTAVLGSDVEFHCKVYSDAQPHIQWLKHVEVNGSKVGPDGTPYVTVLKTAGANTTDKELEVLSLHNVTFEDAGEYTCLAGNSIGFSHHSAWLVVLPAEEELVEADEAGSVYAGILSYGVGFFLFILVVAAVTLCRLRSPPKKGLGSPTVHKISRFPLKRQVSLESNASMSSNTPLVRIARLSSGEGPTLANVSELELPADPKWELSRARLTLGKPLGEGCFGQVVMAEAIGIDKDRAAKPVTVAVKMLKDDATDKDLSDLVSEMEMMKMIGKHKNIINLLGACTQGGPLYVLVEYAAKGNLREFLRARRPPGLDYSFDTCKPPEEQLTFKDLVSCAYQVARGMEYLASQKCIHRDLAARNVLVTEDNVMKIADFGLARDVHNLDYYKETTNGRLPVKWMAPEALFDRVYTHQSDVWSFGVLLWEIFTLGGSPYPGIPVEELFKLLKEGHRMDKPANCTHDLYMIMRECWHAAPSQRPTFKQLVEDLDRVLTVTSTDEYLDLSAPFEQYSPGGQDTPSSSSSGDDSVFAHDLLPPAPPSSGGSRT

382 unique human kinases [3] = biological target: T3, 382 unique human kinases (Homo sapiens, UniProt O94804); conditions: LOK/STK10, 10 uM; for remaining activity at 10 µM: read-out: % Enzyme Activity (relative to DMSO controls)
T3 construct: purchased Reaction Biology (HotSpot contract assay)
T3 sequence (O94804 whole entry): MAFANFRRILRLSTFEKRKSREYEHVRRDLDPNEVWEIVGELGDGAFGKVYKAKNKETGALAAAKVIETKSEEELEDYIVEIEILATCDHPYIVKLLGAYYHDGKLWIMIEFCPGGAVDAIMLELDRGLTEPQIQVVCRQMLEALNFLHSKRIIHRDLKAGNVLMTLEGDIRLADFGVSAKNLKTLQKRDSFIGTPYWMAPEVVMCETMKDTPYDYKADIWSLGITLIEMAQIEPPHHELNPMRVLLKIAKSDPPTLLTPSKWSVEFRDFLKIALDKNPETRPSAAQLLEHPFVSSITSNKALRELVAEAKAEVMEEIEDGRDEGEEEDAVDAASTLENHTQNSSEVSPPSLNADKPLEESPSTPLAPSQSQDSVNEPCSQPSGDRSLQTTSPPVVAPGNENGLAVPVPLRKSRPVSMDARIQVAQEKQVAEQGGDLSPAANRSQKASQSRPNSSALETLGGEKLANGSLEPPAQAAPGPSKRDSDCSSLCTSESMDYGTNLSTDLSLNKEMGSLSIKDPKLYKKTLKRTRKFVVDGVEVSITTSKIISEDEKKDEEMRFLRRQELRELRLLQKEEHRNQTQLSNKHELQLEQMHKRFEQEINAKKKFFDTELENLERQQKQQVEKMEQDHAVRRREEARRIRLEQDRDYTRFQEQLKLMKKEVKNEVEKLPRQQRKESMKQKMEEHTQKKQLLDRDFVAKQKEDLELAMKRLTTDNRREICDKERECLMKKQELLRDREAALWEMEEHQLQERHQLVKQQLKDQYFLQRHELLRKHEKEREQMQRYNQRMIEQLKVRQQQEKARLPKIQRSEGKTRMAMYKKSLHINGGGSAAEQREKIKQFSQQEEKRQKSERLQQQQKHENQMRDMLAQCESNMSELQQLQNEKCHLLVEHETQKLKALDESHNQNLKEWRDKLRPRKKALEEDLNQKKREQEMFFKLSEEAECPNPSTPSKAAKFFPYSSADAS

382 unique human kinases [4] = biological target: T4, 382 unique human kinases (Homo sapiens, UniProt Q13237); conditions: PKG2/PRKG2; compound at 10 uM; duplicate values; read-out: % Enzyme Activity (relative to DMSO controls)
T4 construct: purchased Reaction Biology (HotSpot contract assay)

382 unique human kinases [5] = biological target: T5, 382 unique human kinases (Homo sapiens, UniProt P53667); conditions: LIMK1, 10 uM; for remaining activity at 10 µM: read-out: % Enzyme Activity (relative to DMSO controls)
T5 construct: purchased Reaction Biology (HotSpot contract assay)

382 unique human kinases [6] = biological target: T6, 382 unique human kinases (Homo sapiens, UniProt P29320); conditions: EPHA3, 10 uM; for remaining activity at 10 µM: read-out: % Enzyme Activity (relative to DMSO controls)
T6 construct: purchased Reaction Biology (HotSpot contract assay)
T6 sequence (P29320 21-983): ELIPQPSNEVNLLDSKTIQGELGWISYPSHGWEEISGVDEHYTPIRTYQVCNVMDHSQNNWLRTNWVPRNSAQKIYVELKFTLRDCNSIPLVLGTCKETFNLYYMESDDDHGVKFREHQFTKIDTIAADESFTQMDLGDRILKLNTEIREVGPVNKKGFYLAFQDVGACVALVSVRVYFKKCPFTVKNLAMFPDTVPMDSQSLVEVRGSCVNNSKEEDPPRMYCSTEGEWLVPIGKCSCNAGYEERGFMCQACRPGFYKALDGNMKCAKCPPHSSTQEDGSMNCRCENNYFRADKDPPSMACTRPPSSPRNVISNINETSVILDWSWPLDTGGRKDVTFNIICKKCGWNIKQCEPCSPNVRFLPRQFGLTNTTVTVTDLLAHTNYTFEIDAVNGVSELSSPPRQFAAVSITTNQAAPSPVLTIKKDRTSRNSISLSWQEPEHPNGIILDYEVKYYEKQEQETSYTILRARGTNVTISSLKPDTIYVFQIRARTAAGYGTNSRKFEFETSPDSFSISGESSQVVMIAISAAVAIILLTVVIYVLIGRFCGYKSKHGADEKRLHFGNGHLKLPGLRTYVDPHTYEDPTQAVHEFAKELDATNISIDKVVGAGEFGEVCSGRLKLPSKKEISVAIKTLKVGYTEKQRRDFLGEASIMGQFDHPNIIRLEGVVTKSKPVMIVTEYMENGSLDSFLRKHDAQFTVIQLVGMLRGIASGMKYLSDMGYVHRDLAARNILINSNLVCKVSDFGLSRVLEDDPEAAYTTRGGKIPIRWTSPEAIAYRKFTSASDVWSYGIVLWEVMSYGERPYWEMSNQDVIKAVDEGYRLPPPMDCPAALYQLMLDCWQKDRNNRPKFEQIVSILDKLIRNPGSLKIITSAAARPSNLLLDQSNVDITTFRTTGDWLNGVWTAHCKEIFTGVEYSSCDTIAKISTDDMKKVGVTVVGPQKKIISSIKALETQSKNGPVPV

382 unique human kinases [7] = biological target: T7, 382 unique human kinases (Homo sapiens, UniProt Q8TD08); conditions: kinase ERK7/MAPK15, compound 10 uM; for remaining activity at 10 µM: read-out: % Enzyme Activity (relative to DMSO controls)
T7 construct: purchased Reaction Biology (HotSpot contract assay)
T7 sequence (Q8TD08 1-544): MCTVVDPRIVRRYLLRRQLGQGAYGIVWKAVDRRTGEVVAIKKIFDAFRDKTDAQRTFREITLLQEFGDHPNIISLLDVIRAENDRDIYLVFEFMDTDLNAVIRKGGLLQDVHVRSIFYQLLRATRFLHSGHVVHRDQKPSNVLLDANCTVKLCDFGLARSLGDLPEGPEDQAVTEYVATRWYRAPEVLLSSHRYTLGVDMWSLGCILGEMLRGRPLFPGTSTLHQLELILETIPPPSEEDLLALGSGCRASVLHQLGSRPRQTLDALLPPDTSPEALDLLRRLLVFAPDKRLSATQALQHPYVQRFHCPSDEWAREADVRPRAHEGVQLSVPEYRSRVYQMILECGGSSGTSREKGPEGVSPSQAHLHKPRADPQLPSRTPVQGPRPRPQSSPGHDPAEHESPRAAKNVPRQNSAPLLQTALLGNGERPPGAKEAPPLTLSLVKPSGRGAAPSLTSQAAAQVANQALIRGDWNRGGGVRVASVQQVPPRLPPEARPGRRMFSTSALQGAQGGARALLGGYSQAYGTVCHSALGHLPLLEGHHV

382 unique human kinases [8] = biological target: T8, 382 unique human kinases (Homo sapiens, UniProt Q9UQB9); conditions: Aurora C, 10 uM; for remaining activity at 10 µM: read-out: % Enzyme Activity (relative to DMSO controls)
T8 construct: purchased Reaction Biology (HotSpot contract assay)
T8 sequence (Q9UQB9 1-309): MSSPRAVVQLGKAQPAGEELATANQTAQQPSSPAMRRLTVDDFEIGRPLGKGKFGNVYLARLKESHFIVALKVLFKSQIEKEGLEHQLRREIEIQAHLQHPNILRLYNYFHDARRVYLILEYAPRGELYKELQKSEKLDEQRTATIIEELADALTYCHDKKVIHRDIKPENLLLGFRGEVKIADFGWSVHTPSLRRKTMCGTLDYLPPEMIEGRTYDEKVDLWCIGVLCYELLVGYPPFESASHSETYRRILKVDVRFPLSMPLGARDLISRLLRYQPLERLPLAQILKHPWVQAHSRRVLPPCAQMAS

382 unique human kinases [9] = biological target: T9, 382 unique human kinases (Homo sapiens, UniProt P51812, I416V); conditions: RSK2 (I416V), [ATP] 10 µM, compound 10 uM; for remaining activity at 10 µM: read-out: % Enzyme Activity (relative to DMSO controls)
T9 construct: purchased Reaction Biology (HotSpot contract assay)
T9 sequence (P51812 whole entry I416V): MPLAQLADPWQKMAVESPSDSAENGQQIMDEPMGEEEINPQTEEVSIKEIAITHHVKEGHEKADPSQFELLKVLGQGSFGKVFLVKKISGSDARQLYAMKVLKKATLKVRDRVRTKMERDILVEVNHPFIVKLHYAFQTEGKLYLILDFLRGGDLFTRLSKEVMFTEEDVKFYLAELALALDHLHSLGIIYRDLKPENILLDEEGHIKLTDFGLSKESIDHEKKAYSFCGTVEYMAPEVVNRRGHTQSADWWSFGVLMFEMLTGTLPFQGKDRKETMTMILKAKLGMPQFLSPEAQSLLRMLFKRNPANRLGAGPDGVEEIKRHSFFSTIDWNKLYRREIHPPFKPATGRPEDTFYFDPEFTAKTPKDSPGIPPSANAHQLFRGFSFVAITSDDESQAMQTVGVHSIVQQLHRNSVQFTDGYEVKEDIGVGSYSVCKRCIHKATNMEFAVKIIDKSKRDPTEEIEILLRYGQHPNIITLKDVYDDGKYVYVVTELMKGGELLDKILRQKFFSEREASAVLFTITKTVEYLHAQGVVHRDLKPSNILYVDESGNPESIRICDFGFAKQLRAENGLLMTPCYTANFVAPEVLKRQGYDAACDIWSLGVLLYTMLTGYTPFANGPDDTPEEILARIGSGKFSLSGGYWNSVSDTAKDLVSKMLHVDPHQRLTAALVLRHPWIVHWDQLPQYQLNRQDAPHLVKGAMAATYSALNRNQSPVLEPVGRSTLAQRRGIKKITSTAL

382 unique human kinases [10] = biological target: T10, 382 unique human kinases (Homo sapiens, UniProt P22455, V550E); conditions: FGFR4 (V550E), 10 uM; for remaining activity at 10 µM: read-out: % Enzyme Activity (relative to DMSO controls)
T10 construct: purchased Reaction Biology (HotSpot contract assay)

382 unique human kinases [11] = biological target: T11, 382 unique human kinases (Homo sapiens, UniProt P29597); conditions: TYK2, [ATP] 15 µM, compound 10 uM; for remaining activity at 10 µM: read-out: % Enzyme Activity (relative to DMSO controls)
T11 construct: purchased Reaction Biology (HotSpot contract assay)
T11 sequence (P29597 whole entry): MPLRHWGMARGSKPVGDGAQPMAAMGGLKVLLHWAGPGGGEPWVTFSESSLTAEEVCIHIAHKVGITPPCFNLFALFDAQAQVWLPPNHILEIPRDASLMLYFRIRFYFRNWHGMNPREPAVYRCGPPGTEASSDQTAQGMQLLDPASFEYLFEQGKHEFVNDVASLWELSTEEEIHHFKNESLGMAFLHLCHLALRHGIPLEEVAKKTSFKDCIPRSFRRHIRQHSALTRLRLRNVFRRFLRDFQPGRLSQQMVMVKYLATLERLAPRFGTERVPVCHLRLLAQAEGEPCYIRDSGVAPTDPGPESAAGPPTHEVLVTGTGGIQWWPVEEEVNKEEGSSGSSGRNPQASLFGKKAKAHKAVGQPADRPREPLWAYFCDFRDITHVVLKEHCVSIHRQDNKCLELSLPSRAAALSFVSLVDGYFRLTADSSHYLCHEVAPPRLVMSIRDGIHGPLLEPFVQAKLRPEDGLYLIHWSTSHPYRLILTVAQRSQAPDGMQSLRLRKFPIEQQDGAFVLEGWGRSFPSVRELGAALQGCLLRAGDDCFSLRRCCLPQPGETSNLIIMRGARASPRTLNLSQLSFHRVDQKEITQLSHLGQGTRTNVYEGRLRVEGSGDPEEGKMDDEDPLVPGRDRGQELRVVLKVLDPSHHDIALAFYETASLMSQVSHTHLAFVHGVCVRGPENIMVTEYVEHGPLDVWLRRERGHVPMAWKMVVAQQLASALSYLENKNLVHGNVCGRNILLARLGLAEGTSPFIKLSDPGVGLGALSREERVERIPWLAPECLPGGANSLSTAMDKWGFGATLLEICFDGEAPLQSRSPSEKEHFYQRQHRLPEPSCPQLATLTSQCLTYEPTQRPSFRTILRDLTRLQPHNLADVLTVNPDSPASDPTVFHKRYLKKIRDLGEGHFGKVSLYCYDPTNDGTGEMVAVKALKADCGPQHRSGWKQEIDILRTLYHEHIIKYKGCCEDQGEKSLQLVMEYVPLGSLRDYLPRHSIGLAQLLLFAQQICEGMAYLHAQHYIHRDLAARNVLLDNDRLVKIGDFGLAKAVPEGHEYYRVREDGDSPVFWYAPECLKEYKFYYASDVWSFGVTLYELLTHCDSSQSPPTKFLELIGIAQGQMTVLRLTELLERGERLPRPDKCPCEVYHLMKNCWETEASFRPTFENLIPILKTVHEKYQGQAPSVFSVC

382 unique human kinases [12] = biological target: T12, 382 unique human kinases (Homo sapiens, UniProt Q15120); conditions: PDK3/PDHK3, [ATP] 30 µM, compound 10 uM; for remaining activity at 10 µM: read-out: % Enzyme Activity (relative to DMSO controls)
T12 construct: purchased Reaction Biology (HotSpot contract assay)

382 unique human kinases [13] = biological target: T13, 382 unique human kinases (Homo sapiens, UniProt Q15118); conditions: PDK1/PDHK1, [ATP] 50 µM, compound 10 uM; for remaining activity at 10 µM: read-out: % Enzyme Activity (relative to DMSO controls)
T13 construct: purchased Reaction Biology (HotSpot contract assay)

382 unique human kinases [14] = biological target: T14, 382 unique human kinases (Homo sapiens, UniProt Q13555); conditions: CAMK2g, 10 uM; for remaining activity at 10 µM: read-out: % Enzyme Activity (relative to DMSO controls)
T14 construct: purchased Reaction Biology (HotSpot contract assay)
T14 sequence (Q13555 whole entry): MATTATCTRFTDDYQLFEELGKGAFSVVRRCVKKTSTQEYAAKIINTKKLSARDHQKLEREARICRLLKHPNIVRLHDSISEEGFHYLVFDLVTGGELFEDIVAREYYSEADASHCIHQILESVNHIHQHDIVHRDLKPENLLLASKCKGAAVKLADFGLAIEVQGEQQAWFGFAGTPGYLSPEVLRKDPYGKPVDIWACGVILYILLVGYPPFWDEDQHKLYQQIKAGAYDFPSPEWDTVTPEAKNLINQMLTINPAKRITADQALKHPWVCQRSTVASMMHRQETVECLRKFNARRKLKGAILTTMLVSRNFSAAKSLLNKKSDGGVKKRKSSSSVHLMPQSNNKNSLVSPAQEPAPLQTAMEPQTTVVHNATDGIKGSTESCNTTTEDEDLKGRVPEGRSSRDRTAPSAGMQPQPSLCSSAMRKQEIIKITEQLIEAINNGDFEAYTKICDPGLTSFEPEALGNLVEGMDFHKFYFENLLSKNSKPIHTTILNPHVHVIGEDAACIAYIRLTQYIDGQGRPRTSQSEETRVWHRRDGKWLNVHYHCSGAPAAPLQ

SMILES	remaining activity at 10 µM (382 unique human kinases [1]) [%]	remaining activity at 10 µM (382 unique human kinases [2]) [%]	remaining activity at 10 µM (382 unique human kinases [3]) [%]	remaining activity at 10 µM (382 unique human kinases [4]) [%]	remaining activity at 10 µM (382 unique human kinases [5]) [%]	remaining activity at 10 µM (382 unique human kinases [6]) [%]	remaining activity at 10 µM (382 unique human kinases [7]) [%]	remaining activity at 10 µM (382 unique human kinases [8]) [%]	remaining activity at 10 µM (382 unique human kinases [9]) [%]	remaining activity at 10 µM (382 unique human kinases [10]) [%]	remaining activity at 10 µM (382 unique human kinases [11]) [%]	remaining activity at 10 µM (382 unique human kinases [12]) [%]	remaining activity at 10 µM (382 unique human kinases [13]) [%]	remaining activity at 10 µM (382 unique human kinases [14]) [%]	also measured
CC(C)c1cc(-c2n[nH]c(=O)n2-c2ccc3c(ccn3C)c2)c(O)cc1O [Ganetespib (STA9090)]	90	66.5	77	108	67.6	73.7	84.8	–	–	–	–	–	–	–	–
CCNC(=O)c1noc(-c2cc(C(C)C)c(O)cc2O)c1-c1ccc(CN2CCOCC2)cc1 [Luminespib]	–	–	–	–	–	–	–	96	88.9	101	102	76.8	60	106	% Enzyme Activity (relative to DMSO controls) (382 unique human kinases [8]): 94.32%; % Enzyme Activity (relative to DMSO controls) (382 unique human kinases [9]): 87.06%; % Enzyme Activity (relative to DMSO controls) (382 unique human kinases [10]): 100.42%; % Enzyme Activity (relative to DMSO controls) (382 unique human kinases [11]): 101.11%; % Enzyme Activity (relative to DMSO controls) (382 unique human kinases [12]): 75.85%; % Enzyme Activity (relative to DMSO controls) (382 unique human kinases [13]): 56.21%; % Enzyme Activity (relative to DMSO controls) (382 unique human kinases [14]): 105.88%
CCNC(=O)c1noc(-c2cc(C(C)C)c(O)cc2O)c1-c1ccc(CN2CCOCC2)cc1 [Luminespib (AUY-922)]	97.7	101	86.5	104	102	104	102	–	–	–	–	–	–	–	% Enzyme Activity (relative to DMSO controls) (382 unique human kinases [1]): 97.37%; % Enzyme Activity (relative to DMSO controls) (382 unique human kinases [2]): 98.78%; % Enzyme Activity (relative to DMSO controls) (382 unique human kinases [3]): 85.80%; % Enzyme Activity (relative to DMSO controls) (382 unique human kinases [5]): 101.40%; % Enzyme Activity (relative to DMSO controls) (382 unique human kinases [6]): 100.00%; % Enzyme Activity (relative to DMSO controls) (382 unique human kinases [7]): 97.45%
CC(C)c1cc(-c2n[nH]c(=O)n2-c2ccc3c(ccn3C)c2)c(O)cc1O [Ganetespib]	–	–	–	–	–	–	–	92.9	56.7	96.9	62.6	22.3	54.4	98.8	–
